Test results reported in patent US8008283B2, “Methods and compositions for the treatment of neuropsychiatric disorders” (Neurotherapeutics Pharma, Inc., priority 2005, dated 2011).

Columns and labels:
[1] = tested on: rat hippocampal slices; assay: spontaneous epileptiform burst discharges across a spectrum of in vitro models in hippocampal slices (Example 69); type: cell-based; conditions: for spontaneous burst discharges, CA3 and CA1: high-K+ (10 mM) medium
Experimental: Sprague-Dawley rats (males and females; 25-35 days old) were decapitated, the top of the skull was rapidly removed, and the brain chilled with ice-cold oxygenated slicing medium. […] A hemisphere of brain containing hippocampus was blocked and glued (cyanoacrylic adhesive) to the stage of a Vibroslicer (Frederick Haer, Brunsick, Me.). […] In the recording chamber, the slices were perfused with oxygenated recording medium at 34-35° C. All animal procedures were conducted in accordance with NIH and University of Washington animal care guidelines.
In most slice experiments, simultaneous extracellular field electrode recordings were obtained from CA1 and CA3 areas. A bipolar tungsten stimulating electrode was placed on the Schaffer collaterals to evoke synaptically-driven field responses in CA1. Stimuli consisted of 100-300 μsec duration pulses at an intensity of four times the population-spike threshold. After discharges were evoked by a 2 second train of such stimuli delivered at 60 Hz.

[2] = tested on: hippocampal slices, CA1; assay: comparison of low-[Cl-]o and furosemide on blockade of high-[K+]o-induced epileptiform activity, CA1 field (Example 78); type: cell-based, rat
From the text: In all of the following experiments, [Cl^−]o was reduced by equimolar replacement of NaCl with Na^+-gluconate. Gluconate was used rather than other anion replacements for several reasons. […]; U.S. Pat. No. 5,902,732). Third, formate, acetate, and proprionate generate weak acids when employed as Cl^− substitutes and lead to a prompt fall in intracellular pH; gluconate remains extracellular and has not been reported to induce intracellular pH shifts. Fourth, for purposes of comparison we wished to use the same anion replacement that had been used in previous studies examining the effects of low-[Cl^−]o on activity-evoked changes of the ECS.
Sprague-Dawley adult rats were prepared as previously described. Briefly, transverse hippocampal slices, 400 μm thick, were cut using a vibrating cutter. Slices typically contained the entire hippocampus and subiculum. […] Normal ACSF contained (in mmol/l): 124 NaCl, 3 KCl, 1.25 NaH2PO4, 1.2 MgSO4, 26 NaHCO3, 2 CaCl2, and 10 dextrose.
Sharp-electrodes filled with 4 M potassium acetate were used for intracellular recordings from CA1 pyramidal cells. […] For stimulation of the Schaffer collateral pathway, a small monopolar electrode was placed on the surface of the slice midway between areas CA1 and CA3. […] AxoScope software (Axon Instruments Inc.) on a PC-computer was used for off-line analyses of data. […]

[3] = tested on: rats; assay: contextual fear conditioning in rats (freezing); type: in vivo, rat; conditions: I.V. in DMSO, furosemide 100 mg/kg, bumetanide 50 mg/kg; compared with vehicle alone; FIG. 5
Experimental: Contextual fear conditioning involves pairing an aversive event, in this case moderate foot shock, with a distinctive environment. The strength of the fear memory is assessed using freezing, a species-typical defensive reaction in rats, marked by complete immobility, except for breathing. […] However, if they are allowed to explore the distinctive environment sometime before the immediate shock, they show intense anxiety and fear when placed back into the same environment. We can take advantage of this fact and, by procedurally dividing contextual fear conditioning into two phases, we can separately study effects of treatments on memory for the context (specifically a hippocampus based process) from learning the association between context and shock or experiencing the aversiveness of the shock (which depend upon emotional response circuitry including amygdala). […] The experiment employed 24 rats. […] Each rat was again placed into the same environment for 8 min during which time freezing was measured, as an index of Pavlovian conditioned fear. […] Measurement of freezing was accomplished through an overhead video camera connected to the microcomputer and was automatically scored using a specialty piece of software, FreezeFrame (OER Inc., Reston, Va.). Total freezing time was analyzed in a one-way analysis of variance (ANOVA) test, with drug dose as the […] factor.

[4] = tested on: human patients; conditions: Haglund and Hochman, J. Neurophysiol. 2005; cited from earlier work
[5] = tested on: rats; conditions: Granados-Soto et al. Pain 2005; cited from earlier work
[6] = tested on: human skin; conditions: Willis et al.; cited from earlier work
[7] = co-treatment with an NMDA receptor antagonist, non-NMDA receptor and Ca2+ channel antagonists together with furosemide; Collins et al. 1998; cited from earlier work

In the case of `NS(=O)(=O)c1cc(C(=O)O)c(NCc2ccco2)cc1Cl` [furosemide], the “latency of block of bursting” value ([1]; 0-Ca++ experiments, 5 mM furosemide) is reported as 15 to 20 min, the spontaneous burst discharges ([1]; 200-300 μM 4-aminopyridine) is reported as “blocked” and the “anticonvulsant resistant bursts, entorhinal cortex” value ([1]; 3 hours of perfusion with 0-Mg++ medium, one hour after addition of furosemide) is reported as “blocked”. The “spontaneous bursting activity in both CA1 and CA3” value ([1]; all experiments) was “reversibly blocked”, the “latency of block of bursting” value ([1]; all other protocols, 2.5 mM furosemide) was 20 to 60 min and the spontaneous burst discharges ([1]; bicuculline at 50-100 μM) was “blocked”. The “spontaneous burst discharges, CA3 and CA1” value ([1]; 2.5 mM furosemide, after 15 minutes of perfusion) was “increased in magnitude”, the “spontaneous burst discharges, CA3 and CA1” value ([1]; 2.5 mM furosemide, after 45 minutes of perfusion) was “blocked in a reversible manner” and the spontaneous burst discharges ([1]; removal of calcium plus extracellular chelation (0-Ca++)) was “blocked”. The spontaneous burst discharges ([1]; removal of magnesium (0-Mg++), 1 hours perfusion) was “blocked”, the “response to electrical stimulation of the Schaffer collaterals” value ([2]; after the spontaneous bursting had been blocked) was “elicited hyperexcited responses” and the “temporal sequence of effects on high-[K+]o-induced bursting, CA1 field” value ([2]; furosemide 2.5 and 5 mM, [K+]o 12 mM) was “an initial brief period of increased amplitude of field activity, and then blockade (reversible) of spontaneous field activity”. For the same compound, the freezing [3] was “significantly less freezing”, the “epileptic activity and normal brain activity in humans” value [4] was “able to block epileptic activity in humans while not affecting normal brain activity” and the formalin-induced nociception [5] was “reduced”. The “sensory nerve activation, itch and flare responses induced by histamine” value [6] was “inhibit sensory nerve activation to reduce the itch and flare responses” and the “reduction of alcohol-dependent cerebrocortical damage” value [7] was 75-85%.
